# Measured values published in article PMC7725003, “Systematically Studying the Optimal Amino Acid Distribution Patterns of the Amphiphilic Structure by Using the Ultrashort Amphiphiles” (Frontiers in Microbiology, 2020).
# Where no end group is shown, it is not given here.
# Tests used:
# [1] = tested on: E. coli 25922; assay type: cell-based, Escherichia coli; conditions: 25922, 24 h
# Outline: (§1)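 Inoculum: mid-log phase, MHB, 0.5–1 × 10^6 CFU mL^–1. Peptides: serial dilution in 0.2% BSA, equal volume. Incubation: 24 h, 37°C. Read-out: A492, MIC at 95% inhibition; MBC >99.9% kill after agar subculture.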
# [2] = tested on: E. coli O78; assay type: cell-based, Escherichia coli; conditions: O78, 24 h
# Outline: as §1
# [3] = tested on: E. coli UB1005; assay type: cell-based, Escherichia coli; conditions: UB1005, 24 h
# Outline: as §1
# [4] = tested on: S. typhimurium 14028; assay type: cell-based, Salmonella typhimurium; conditions: 14028, 24 h
# Outline: as §1
# [5] = tested on: S. typhimurium 7731; assay type: cell-based, Salmonella typhimurium; conditions: 7731, 24 h
# Outline: as §1
# [6] = tested on: S. pullorum 7913; assay type: cell-based, Salmonella pullorum; conditions: 7913, 24 h
# Outline: as §1
# [7] = tested on: P. aeruginosa 27853; assay type: cell-based, Pseudomonas aeruginosa; conditions: 27853, 24 h
# Outline: as §1
# [8] = tested on: E. faecalis 29212; assay type: cell-based, Enterococcus faecalis; conditions: 29212, 24 h
# Outline: as §1
# [9] = tested on: Listeria monocytogenes CGMCC 1.1075; assay type: cell-based; conditions: CGMCC 1.1075, 24 h
# Outline: as §1
# [10] = tested on: all of the tested bacterial strains; test: Geometric mean of MICs, all tested bacterial strains; assay type: cell-based; conditions: for GM, All: geometric mean of MICs across all tested strains; for TI, All: therapeutic index TI = MHC/GM MIC
# Outline: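 Per strain, MIC came from absorbance at 492 nm after 24 h at 37°C (≥95% inhibition), using mid-log inoculum of 0.5–1 × 10^6 CFU mL^–1 in MHB and peptide diluted in 0.2% BSA. MBC (>99.9% killed) came from overnight agar plating, and values are geometric means across strains.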
# [11] = tested on: E. coli ATCC 25922; test: Salt sensitivity assay (MIC); assay type: cell-based, Escherichia coli; conditions: for MIC, FeCl3: 4 μM FeCl3; for MIC, NH4Cl: 6 μM NH4Cl; for MIC, ZnCl2: 8 μM ZnCl2; for MIC, MgCl2: 1 mM MgCl2; for MIC, CaCl2: 2 mM CaCl2; for MIC, KCl: 4.5 mM KCl; for MIC, NaCl: 150 mM NaCl; for MIC, Control: no added salt, three independent assays
# Outline: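 Peptides diluted serially in 0.2% BSA solution were combined at identical volumes with mid-logarithmic E. coli ATCC 25922 in MHB (0.5–1 × 10^6 CFU mL^–1) in 96-well plates, with or without a physiological salt. Plates were incubated for 24 h at 37°C. MIC was the lowest concentration inhibiting 95% of growth, measured as absorbance at 492 nm on a microplate reader.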
# [12] = tested on: S. aureus 29213; test: Salt sensitivity assay (MIC); assay type: cell-based, Staphylococcus aureus; conditions: for MIC, FeCl3: 4 μM FeCl3; for MIC, NH4Cl: 6 μM NH4Cl; for MIC, ZnCl2: 8 μM ZnCl2; for MIC, MgCl2: 1 mM MgCl2; for MIC, CaCl2: 2 mM CaCl2; for MIC, KCl: 4.5 mM KCl; for MIC, NaCl: 150 mM NaCl; for MIC, Control: no added salt, three independent assays
# Outline: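 Physiological salts (150 mM NaCl, 4.5 mM KCl, 6 μM NH4Cl, 8 μM ZnCl2, 1 mM MgCl2, 2mM CaCl2, 4 μM FeCl3) added to MHB. Bacteria at 0.5–1 × 10^6 CFU/mL exposed to serially diluted peptides for 24 h at 37°C. MIC read as lowest peptide concentration giving 95% growth inhibition by absorbance at 492 nm.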
# [13] = tested on: S. aureus 29213; test: Time-kill kinetics; assay type: cell-based, Staphylococcus aureus; conditions: 1 × MIC concentration (Figure 5 legend: 1× MBC); mean of three independent experiments
# From the text: The kinetics of the sterilization activity of the peptide was further evaluated. […] The results of the kinetic were the mean values of three independent experiments, and each independent experiment contained three technical replicates.
# [14] = tested on: E. coli ATCC 25922; test: Outer membrane permeabilization (NPN uptake); assay type: cell-based, Escherichia coli; conditions: at 16 μM peptide
# Procedure: Mid-log phase E. coli ATCC 25922 cells (OD600 = 0.2) were incubated with NPN (10 μM) in 5 mM HEPES buffer (pH 7.4, containing 5 mM glucose) for 30 min. The background fluorescence was recorded for subtraction (excitation λ = 350 nm, emission λ = 420 nm) with an F-4500 fluorescence spectrophotometer (Hitachi, Japan). Subsequently, 100 μL of cell suspension was mixed with equal volumes of the peptide solution at concentrations that ranged from 1 to 64 μM in a sterile 96-well black plate. The fluorescence was recorded over time until no further fluorescence increase was detectable. Each test was performed independently in triplicate, and the results were converted to the percentage of NPN uptake using the equation:
# where Fobs is the observed fluorescence at a given peptide concentration, F0 is the initial fluorescence of NPN with microbial cells in the absence of peptide, and F100 is the fluorescence of NPN with microbial cells upon the addition of 10 μg/mL polymyxin B (Sigma) (for bacteria) as a positive control.
substance,measurement,setting,value
RLRLRLRLL-NH2 [L5],MBC,[1],4 µM
same,MIC,[1],2 µM
same,MBC,[2],4 µM
same,MIC,[2],2 µM
same,MBC,[3],8 µM
same,MIC,[3],4 µM
same,MBC,[4],8 µM
same,MIC,[4],4 µM
same,MBC,[5],8 µM
same,MIC,[5],4 µM
same,MBC,[6],4 µM
same,MIC,[6],2 µM
same,MBC,[7],16 µM
same,MIC,[7],8 µM
same,MBC,[8],32 µM
same,MIC,[8],16 µM
same,MBC,[9],8 µM
same,MIC,[9],4 µM
same,"GM, All",[10],4.18 µM
same,"TI, All",[10],61.24
same,"MIC, FeCl3",[11],0.5 µM
same,"MIC, NH4Cl",[11],0.5 µM
same,"MIC, ZnCl2",[11],0.5 µM
same,"MIC, MgCl2",[11],0.5 µM
same,"MIC, CaCl2",[11],2 µM
same,"MIC, KCl",[11],0.5 µM
same,"MIC, NaCl",[11],4 µM
same,"MIC, Control",[11],2 µM
same,"MIC, FeCl3",[12],8 µM
same,"MIC, NH4Cl",[12],8 µM
same,"MIC, ZnCl2",[12],8 µM
same,"MIC, MgCl2",[12],8 µM
same,"MIC, CaCl2",[12],16 µM
same,"MIC, KCl",[12],8 µM
same,"MIC, NaCl",[12],64 µM
same,"MIC, Control",[12],8 µM
same,time to clear off the growth of 99.99% of bacteria,[13],≤ 0.08 min
same,outer membrane permeabilization (NPN uptake),[14],approximately 50%
RWRWRWRWW-NH2 [W5],MBC,[1],4 µM
same,MIC,[1],2 µM
same,MBC,[2],8 µM
same,MIC,[2],4 µM
same,MBC,[3],4 µM
same,MIC,[3],2 µM
same,MBC,[4],8 µM
same,MIC,[4],4 µM
same,MBC,[5],8 µM
same,MIC,[5],4 µM
same,MBC,[6],4 µM
same,MIC,[6],2 µM
same,MBC,[7],8 µM
same,MIC,[7],4 µM
same,MBC,[8],8 µM
same,MIC,[8],4 µM
same,MBC,[9],4 µM
same,MIC,[9],2 µM
same,"GM, All",[10],2.38 µM
same,"TI, All",[10],107.56
same,"MIC, FeCl3",[11],4 µM
same,"MIC, NH4Cl",[11],4 µM
same,"MIC, ZnCl2",[11],4 µM
same,"MIC, MgCl2",[11],2 µM
same,"MIC, CaCl2",[11],4 µM
same,"MIC, KCl",[11],4 µM
same,"MIC, NaCl",[11],4 µM
same,"MIC, Control",[11],2 µM
same,"MIC, FeCl3",[12],1 µM
same,"MIC, NH4Cl",[12],2 µM
same,"MIC, ZnCl2",[12],2 µM
same,"MIC, MgCl2",[12],4 µM
same,"MIC, CaCl2",[12],2 µM
same,"MIC, KCl",[12],4 µM
same,"MIC, NaCl",[12],2 µM
same,"MIC, Control",[12],2 µM
same,time to clear off the growth of 99.99% of bacteria,[13],≤ 3 min
same,outer membrane permeabilization (NPN uptake),[14],approximately 100%
